T/C data for 20 compounds are collected here from PubChem BioAssay AID256 (DTP/NCI, 2004).

For the test, the system named is CD2F1 mice, L1210 leukemia ip, survival T/C. Put plainly: NCI In Vivo Anticancer Drug Screen. Data for tumor model L1210 Leukemia (intraperitoneal) in CD2F1 (CDF1) mice. The following applies: higher = longer survival. Put shortly:
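Vehicle-treated tumor-bearing mice served as controls (C) for compound-treated mice (T). Reported figure is T divided by C.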

[1] abbreviates: endpoint: mean survival time, dose: 100.0 mg/kg/injection, schedule: Q04DX003 (ip), vehicle: saline with Tween-80.
The mark [2] stands for this setting: endpoint: mean survival time, dose: 200.0 mg/kg/injection, schedule: Q04DX003 (ip), vehicle: saline with Tween-80.
Setting [3] is: endpoint: mean survival time, dose: 400.0 mg/kg/injection, schedule: Q04DX003 (ip), vehicle: saline with Tween-80.
Setting [4] is: endpoint: mean survival time, dose: 100.0 mg/kg/injection, schedule: Q01DX001 (ip), vehicle: saline with Tween-80.
The mark [5] stands for this setting: endpoint: mean survival time, dose: 200.0 mg/kg/injection, schedule: Q01DX001 (ip), vehicle: saline with Tween-80.
[6] abbreviates: endpoint: mean survival time, dose: 100.0 mg/kg/injection, schedule: Q04DX003 (ip), vehicle: Klucel (hydroxypropylcellulose) (HPC).
The mark [7] stands for this setting: endpoint: mean survival time, dose: 100.0 mg/kg/injection, schedule: Q01DX009 (ip), vehicle: saline with Tween-80.
The mark [8] stands for this setting: endpoint: mean survival time, dose: 200.0 mg/kg/injection, schedule: Q01DX009 (ip), vehicle: saline with Tween-80.
Setting [9] is: endpoint: mean survival time, dose: 400.0 mg/kg/injection, schedule: Q01DX009 (ip), vehicle: saline with Tween-80.
Where [10] appears, read: endpoint: mean survival time, dose: 50.0 mg/kg/injection, schedule: Q01DX001 (ip), vehicle: saline with Tween-80.
Where [11] appears, read: endpoint: median survival time, dose: 12.5 mg/kg/injection, schedule: Q01DX005 (ip), vehicle: saline with Tween-80.
[12] abbreviates: endpoint: median survival time, dose: 25.0 mg/kg/injection, schedule: Q01DX005 (ip), vehicle: saline with Tween-80.
Setting [13] is: endpoint: median survival time, dose: 50.0 mg/kg/injection, schedule: Q01DX005 (ip), vehicle: saline with Tween-80.
[14] abbreviates: endpoint: median survival time, dose: 100.0 mg/kg/injection, schedule: Q01DX005 (ip), vehicle: saline with Tween-80.

“And” between values parts separate entries of the source, which are not always exact repeats. Identical values can stand only once. Toxic doses and inconclusive results are not listed.

`CCCCCCC[CH2][Sn][CH2]CCCCCCC.Nc1ncnc2c1ncn2C1OC(CO)C2[OH+][OH+]C21` (stereo not drawn): the T/C is, setting by setting: (endpoint: mean survival time, dose: 12.5 mg/kg/injection, schedule: Q01DX005 (ip), vehicle: other) 98 % of control; (endpoint: mean survival time, dose: 25.0 mg/kg/injection, schedule: Q01DX005 (ip), vehicle: other) 110 % of control.

As to `Nc1nc(SCc2ccccc2)c2[nH]cnc2n1`, the T/C (endpoint: mean survival time, dose: 15.6 mg/kg/injection, schedule: Q01DX009 (ip), vehicle: saline) is 118 % of control; the T/C (endpoint: mean survival time, dose: 31.3 mg/kg/injection, schedule: Q01DX009 (ip), vehicle: saline) was 158 % of control and 183 % of control; the T/C (endpoint: mean survival time, dose: 37.5 mg/kg/injection, schedule: Q03DX003 (ip), vehicle: saline) is 151 % of control; the T/C (endpoint: mean survival time, dose: 37.5 mg/kg/injection, schedule: Q04DX003 (ip), vehicle: saline) was 164 % of control; the T/C (endpoint: mean survival time, dose: 62.5 mg/kg/injection, schedule: Q01DX009 (ip), vehicle: saline) was 180 % of control and 181 % of control; the T/C (endpoint: mean survival time, dose: 75.0 mg/kg/injection, schedule: Q04DX003 (ip), vehicle: saline) was 160 % of control. Moreover, the T/C (endpoint: mean survival time, dose: 125.0 mg/kg/injection, schedule: Q01DX009 (ip), vehicle: saline) is 161 % of control; the T/C (endpoint: mean survival time, dose: 150.0 mg/kg/injection, schedule: Q01DX007 (ip), vehicle: saline) is 107 % of control; the T/C (endpoint: mean survival time, dose: 150.0 mg/kg/injection, schedule: Q01DX009 (ip), vehicle: saline) was 100 % of control; the T/C (endpoint: mean survival time, dose: 150.0 mg/kg/injection, schedule: Q03DX003 (ip), vehicle: saline) was 150 % of control; the T/C (endpoint: median survival time, dose: 31.3 mg/kg/injection, schedule: Q01DX009 (ip), vehicle: saline) was 150 % of control and 162 % of control; the T/C (endpoint: median survival time, dose: 62.5 mg/kg/injection, schedule: Q01DX009 (ip), vehicle: saline) was 155 % of control and 156 % of control. Moreover, the T/C (endpoint: median survival time, dose: 125.0 mg/kg/injection, schedule: Q01DX009 (ip), vehicle: saline) was 88 % of control and 112 % of control; the T/C (endpoint: median survival time, dose: 250.0 mg/kg/injection, schedule: Q01DX009 (ip), vehicle: saline) is 87 % of control.

Regarding `O=C(Nc1cccc(O)c1)OCCCCl`, the T/C is, setting by setting: under setting [1], 98 % of control; under setting [2], 98 % of control; under setting [3], 96 % of control.

As to `Cc1ccc(S(=O)(=O)SCc2ccccc2)cc1`, the T/C by setting is: (endpoint: mean survival time, dose: 100.0 mg/kg/injection, schedule: Q01DX009 (ip), vehicle: other) 107 % of control; (endpoint: mean survival time, dose: 200.0 mg/kg/injection, schedule: Q01DX009 (ip), vehicle: other) 96 % of control.

With `O=c1ccn(Cc2ccc([N+](=O)[O-])cc2)c(=O)[nH]1`, the T/C under setting [4] is 94 % of control; the T/C under setting [5] was 90 % of control; the T/C (endpoint: mean survival time, dose: 400.0 mg/kg/injection, schedule: Q01DX001 (ip), vehicle: saline with Tween-80) is 98 % of control.

As to `CCN=C=NCCCN(C)C`, the T/C by setting is: (endpoint: mean survival time, dose: 6.25 mg/kg/injection, schedule: Q01DX009 (ip), vehicle: saline) 105 % of control; (endpoint: mean survival time, dose: 12.5 mg/kg/injection, schedule: Q01DX009 (ip), vehicle: saline) 110 % of control; (endpoint: mean survival time, dose: 25.0 mg/kg/injection, schedule: Q01DX009 (ip), vehicle: saline) 100 % of control.

For the compound `Cc1ccc(/C=C2\CCOC2=O)cc1`, the T/C under setting [6] is 102 % of control; the T/C (endpoint: mean survival time, dose: 200.0 mg/kg/injection, schedule: Q04DX003 (ip), vehicle: Klucel (hydroxypropylcellulose) (HPC)) is 96 % of control; the T/C (endpoint: mean survival time, dose: 400.0 mg/kg/injection, schedule: Q04DX003 (ip), vehicle: Klucel (hydroxypropylcellulose) (HPC)) was 96 % of control.

As to `COC(CCC#N)c1ccc(Cl)cc1` (stereo not drawn), the T/C is, setting by setting: under setting [7], 95 % of control; under setting [1], 97 % of control; under setting [8], 101 % of control; under setting [2], 102 % of control; under setting [9], 96 % of control; under setting [3], 98 % of control.

As for `ClCCCC1(CCCCl)OCCO1`, the T/C is, setting by setting: (endpoint: mean survival time, dose: 100.0 mg/kg/injection, schedule: Q04DX002 (ip), vehicle: saline with Tween-80) 101 % of control; (endpoint: mean survival time, dose: 200.0 mg/kg/injection, schedule: Q04DX002 (ip), vehicle: saline with Tween-80) 97 % of control; (endpoint: mean survival time, dose: 400.0 mg/kg/injection, schedule: Q04DX002 (ip), vehicle: saline with Tween-80) 104 % of control.

Regarding `CNC(=S)N/N=C/c1c(Cl)n(-c2ccccc2)c2c(/C=N/NC(=S)NC)cccc12`, the T/C runs as follows: (endpoint: mean survival time, dose: 25.0 mg/kg/injection, schedule: Q04DX003 (ip), vehicle: Klucel (hydroxypropylcellulose) (HPC)) 96 % of control; (endpoint: mean survival time, dose: 50.0 mg/kg/injection, schedule: Q04DX003 (ip), vehicle: Klucel (hydroxypropylcellulose) (HPC)) 93 % of control; under setting [6], 89 % of control.

For the compound `O=C(O)c1cc(Cl)c(Cl)cn1`, the T/C runs as follows: under setting [10], 97 % of control; under setting [4], 98 % of control; under setting [5], 103 % of control.

Regarding `COC(=O)C1CN=NC1C(=O)OC` (stereo not drawn), the T/C runs as follows: under setting [7], 95 % of control; under setting [8], 95 % of control; under setting [9], 91 % of control.

In the case of `Nc1cc(Sc2ccc(Cl)cc2)nc(N)n1`, the T/C was 102 % of control (endpoint: mean survival time, dose: 25.0 mg/kg/injection, schedule: Q01DX001 (ip), vehicle: saline with Tween-80); 102 % of control under setting [10]; 98 % of control under setting [4].

Turning to `COc1c(O)ccc(/C=C2/SC(=S)NC2=O)c1[N+](=O)[O-]`, the T/C under setting [4] was 101 % of control.

In the case of `CN(C=O)NC(=O)N(CCCl)N=O`, the T/C reads like this: (endpoint: median survival time, dose: 3.12 mg/kg/injection, schedule: Q01DX001 (ip), vehicle: saline) 176 % of control and 200 % of control; (endpoint: median survival time, dose: 6.25 mg/kg/injection, schedule: Q01DX001 (ip), vehicle: saline) 197 % of control and 312 % of control; (endpoint: median survival time, dose: 12.5 mg/kg/injection, schedule: Q01DX001 (ip), vehicle: saline) 370 % of control and 375 % of control; (endpoint: median survival time, dose: 25.0 mg/kg/injection, schedule: Q01DX001 (ip), vehicle: saline) 370 % of control and 375 % of control; (endpoint: median survival time, dose: 50.0 mg/kg/injection, schedule: Q01DX001 (ip), vehicle: saline) 87 % of control.

Consider `Cc1c2ccncc2c(C)c2c1[nH]c1ccc(Br)cc12`, for which the T/C runs as follows: (endpoint: mean survival time, dose: 50.0 mg/kg/injection, schedule: Q04DX003 (ip), vehicle: saline) 101 % of control; (endpoint: mean survival time, dose: 100.0 mg/kg/injection, schedule: Q04DX003 (ip), vehicle: saline) 101 % of control; (endpoint: mean survival time, dose: 200.0 mg/kg/injection, schedule: Q04DX003 (ip), vehicle: saline) 103 % of control; (endpoint: mean survival time, dose: 400.0 mg/kg/injection, schedule: Q04DX003 (ip), vehicle: saline) 103 % of control.

Regarding `COc1ccc2c(c1)n([O-])c1ccccc1[n+]2=O`, the T/C is 116 % of control under setting [11]; 115 % of control (endpoint: median survival time, dose: 12.56 mg/kg/injection, schedule: Q01DX005 (ip), vehicle: saline with Tween-80); 115 % of control (endpoint: median survival time, dose: 21.6 mg/kg/injection, schedule: Q01DX005 (ip), vehicle: saline with Tween-80); 116 % of control under setting [12]; 222 % of control and 112 % of control (endpoint: median survival time, dose: 36.0 mg/kg/injection, schedule: Q01DX005 (ip), vehicle: saline with Tween-80); 117 % of control under setting [13]. In addition, the T/C is, setting by setting: (endpoint: median survival time, dose: 60.0 mg/kg/injection, schedule: Q01DX005 (ip), vehicle: saline with Tween-80) 120 % of control and 287 % of control; under setting [14], 300 % of control; (endpoint: median survival time, dose: 166.67 mg/kg/injection, schedule: Q01DX005 (ip), vehicle: saline with Tween-80) 123 % of control.

Regarding `Cc1ccc(C(=Nc2ccccc2)N=P(c2ccccc2)(c2ccccc2)c2ccccc2)cc1`, the T/C runs as follows: under setting [11], 102 % of control; under setting [12], 105 % of control; under setting [13], 105 % of control; under setting [14], 91 % of control.

On to `O=C(Nc1ccccc1C(=O)O)c1ccccc1`, for which the T/C (endpoint: mean survival time, dose: 25.0 mg/kg/injection, schedule: Q04DX003 (ip), vehicle: saline with Tween-80) was 106 % of control; the T/C (endpoint: mean survival time, dose: 50.0 mg/kg/injection, schedule: Q04DX003 (ip), vehicle: saline with Tween-80) was 101 % of control; the T/C under setting [1] is 98 % of control and 101 % of control.

As to `CCOC(=O)c1sc(N)c(C(=O)OCC)c1C`, the T/C is 98 % of control under setting [7]; 95 % of control under setting [1]; 93 % of control under setting [8]; 95 % of control under setting [2]; 91 % of control under setting [9]; 101 % of control under setting [3].
